Drawing on patent US11242353B2, “Heterocyclic LSF inhibitors and their uses” (TRUSTEES OF BOSTON UNIVERSITY, priority 2020, dated 2022), this text covers GI50 for four compounds.

Each structure is given as a SMILES string. Where two headings read alike, the source gives them in different places.

In this assay the test system is Huh7 cells. As to the kind of experiment: growth inhibition of Huh7 cells. The following applies: single trials per figure (FIGS. 1A-4). In kind it is cell-based. As for the experimental part:
FIGS. 1A-4 show results for growth inhibition of Huh7 cells upon contact with compounds (FQI-37Q), (FQI-34Q), (FQI-1Q), (JAK 196-22), and (JAK 196.23). Compounds (FQI-37Q) and (FQI-34Q) show high activities (GI50 about 0.5 μM and lower).

[1] abbreviates: Homo sapiens, Huh-7, Huh7 cells, read-out: GI50 (growth inhibition of Huh7 cells).

The GI50 is the concentration giving 50% growth inhibition. Consider `COc1cc([N+](=O)[O-])ccc1-n1c(=O)cnc2cc3c(cc21)OCO3` [JAK 196-22], for which the concentration for 50% growth inhibition (GI50) under setting [1] was greater than 10000 nM.

Take `CCOc1ccccc1N1CC(=O)Nc2cc3c(cc21)OCO3` [FQI-1Q, 8-(2-ethoxyphenyl)-7,8-dihydro-[1,3]dioxolo[4,5-g]quinoxalin-6(5H)-one]: under setting [1], the GI50 is 3600 nM.

With `CCOc1cc(N(C)C)ccc1N1CC(=O)Nc2cc3c(cc21)OCCO3` [FQI-37Q, 9-(4-(dimethylamino)-2-ethoxyphenyl)-2,3,8,9-tetrahydro-[1,4]dioxino[2,3-g]quinoxalin-7(6H)-one], the 50% growth inhibitory concentration (GI50) (read-out: GI50 (growth inhibition of Huh7 cells), Huh7 cells) amounted to 501 nM.

As for `CCOc1cc(N(C)C)ccc1N1CC(=O)Nc2cc3c(cc21)OCO3` [FQI-34Q, 8-(4-(dimethylamino)-2-ethoxyphenyl)-7,8-dihydro-[1,3]dioxolo[4,5-g]quinoxalin-6(5H)-one], the GI50 (Homo sapiens, Huh-7, read-out: GI50 (growth inhibition of Huh7 cells), Huh7 cells) is no more than 500 nM.
